Data: patent US20190204342A1, “METHODS AND USES OF MITOFUSINS” (NESTEC S.A., priority 2014, published 2019)

Key:
mitochondrial Complex I = assay: Metformin inhibition of mitochondrial respiration (respirometry, metformin titrated); format: biochemical; conditions: liver mitochondria from WT and Mfn1 LKO mice, malate, glutamate, ADP
Experimental: Freshly extracted mitochondria from WT and Mfn1LKO mice were homogenized in respiration medium and 2 mg of tissue were used for respirometry analyses. In them, complex I activity was stimulated by the addition of malate and glutamate. Then, ADP was added to achieve maximal coupled respiration and metformin was subsequently titrated.
Freshly extracted mitochondria from WT and Mfn1 LKO mice were resuspended in respiration medium and 100 μg of protein were used for respirometry analyses. Complex I activity was stimulated by the addition of malate and glutamate. Then, ADP was added to achieve maximal coupled respiration and metformin was subsequently titrated.

AMPK = AMPK activation in liver after metformin injection (western blot of markers CRTC2, elF2alpha, GAPDH); format: in vivo; conditions: metformin 125 mg/kg; livers taken 90 minutes later; high-fat diet; Mfn1 LKO vs control mice
Experimental: 12 week old Control and Mfn1 LKO mice were fed for 8 weeks with a high-fat diet (D12492, Research Diets Inc., USA). Then, mice were fasted overnight and injected with either saline (as vehicle) or metformin (125 mg/kg). Mice were sacrificed 90 minutes later and livers were immediately extracted and frozen. Protein extracts were obtained and used for western blot analyses to test the markers of AMPK activation: CRTC2, elF2alpha and GAPDH.

[1] = Hypoglycemic effect of metformin in high-fat diet fed control and Mfn1LKO mice (blood glucose); format: in vivo; conditions: metformin 125 mg/kg injected after overnight fast; 8 weeks high-fat diet; Mfn1LKO vs control mice
Text: 12 week old Control and Mfn1 LKO mice were fed for 8 weeks with a high-fat diet (D12492, Research Diets Inc., USA).

SMILES: CN(C)C(=N)N=C(N)N [metformin, Metformin]
- mitochondrial Complex I respiration inhibition (mitochondrial Complex I): inhibited more in the Mfn1 LKO mice than in the control mice
- AMPK activation (markers of AMPK activation) (AMPK): enhanced AMPK activation
- hypoglycemic effect (blood glucose levels) [1]: enhanced in Mfn1LKO mice
